In brackets after ≈: the same amount, converted by molar mass. Square brackets hold non-standard residues; d marks the D form. Peptide text beside a SMILES is read from it. ξ: configuration not given here. ξαMeGly(pent-4-enyl) = C=CCCCC(C)(N)C(=O)O
Columns and labels:
P.aeruginosa ATCC 27853 = type: cell-based, Pseudomonas aeruginosa; details: ATCC 27853, 24 h
Procedure: (§1) The antibiofilm activity of the peptides was determined according to the previously described methods. Strains (final concentration of 5 × 10^5 CFU/mL) and peptides (4–128 μg/mL) were incubated for 24 h at 37 °C. Biofilm cells were cleaned with 0.01-M PBS and fixed with methanol. Crystal violet (0.1%, HopeBiol, Qingdao, China) was used to stain the biofilm cells for 10 min. After washing with water, 95% ethanol was finally added, and the optical density at 595 nm was measured with a microplate reader (Flex Station 3; Laguna Hills, CA, USA).

mouse RBCs = assay: Hemolytic activity; type: cell-based; details: equal volume of 8% RBC suspension, 1 h, OD 490 nm, Triton X-100 positive control; for hemolysis rate at 128 µg/mL: peptide 128 µg/mL (maximum concentration)
Procedure: Mouse red blood cells (RBCs) were collected using the eyeball removal method to investigate the hemolytic activity of the Feleucin-K3 analogs. Then, these analogs were incubated with the same volume of 8% RBC suspension for 1 h. After centrifugation for 10 min, 100 μL of supernatant was withdrawn, and the optical density at 490 nm was detected. The hemolysis rate of the cells treated with 0.1% Triton X-100 (Solarbio, Beijing, China) was used as a positive control, and PBS was used as a negative control.

S. aureus ATCC 25923 [1] = type: cell-based, Staphylococcus aureus; details: ATCC 25923, 24 h
Procedure: as §1

MRSA ATCC 33591 [2] = type: cell-based, Staphylococcus aureus; details: ATCC 33591, 24 h
Procedure: as §1

P. aeruginosa ATCC 27853 = type: cell-based, Pseudomonas aeruginosa; details: ATCC 27853, 18 h
Procedure: (§2) The minimum inhibitory concentration (MIC) of the Feleucin-K3 analogs was tested by the broth microdilution method. Sensitive bacteria and drug-resistant bacteria were diluted to 1 × 10^6 CFU/mL, according to the McFarland standards. Bacterial suspension and peptide solutions (8–128 μg/mL) were incubated at 37 °C for 18 h. The minimum concentration without obvious bacterial growth was the MIC of the peptides. The stability of the analogs in a physiological salt environment was also investigated. In brief, salt powder (450-mM NaCl) was dissolved in deionized water, and the following investigational steps were the same as those described before. The above steps were repeated several times, until the same value was obtained three times.

A. baumannii 9234 = type: cell-based, Acinetobacter baumannii; details: 9234, 18 h
Procedure: as §2

A. baumannii 822144 = type: cell-based, Acinetobacter baumannii; details: 822144, 18 h
Procedure: as §2

A. baumannii 91199 = type: cell-based, Acinetobacter baumannii; details: 91199, 18 h
Procedure: as §2

A. baumannii 9331 = type: cell-based, Acinetobacter baumannii; details: 9331, 18 h
Procedure: as §2

A. baumannii 9896 = type: cell-based, Acinetobacter baumannii; details: 9896, 18 h
Procedure: as §2

A. baumannii 51243 = type: cell-based, Acinetobacter baumannii; details: 51243, 18 h
Procedure: as §2

A. baumannii 5444 = type: cell-based, Acinetobacter baumannii; details: 5444, 18 h
Procedure: as §2

A. baumannii 91869 = type: cell-based, Acinetobacter baumannii; details: 91869, 18 h
Procedure: as §2

A. baumannii 91944 = type: cell-based, Acinetobacter baumannii; details: 91944, 18 h
Procedure: as §2

A. baumannii 9236 = type: cell-based, Acinetobacter baumannii; details: 9236, 18 h
Procedure: as §2

A. baumannii 92359 = type: cell-based, Acinetobacter baumannii; details: 92359, 18 h
Procedure: as §2

A. baumannii ATCC 19606 = type: cell-based, Acinetobacter baumannii; details: ATCC 19606, 18 h
Procedure: as §2

A. baumannii 9336 = type: cell-based, Acinetobacter baumannii; details: 9336, 18 h
Procedure: as §2

MRSA 23 = type: cell-based, Staphylococcus aureus; details: 23, 18 h
Procedure: as §2

MRSA 74 = type: cell-based, Staphylococcus aureus; details: 74, 18 h
Procedure: as §2

MRSA 52 = type: cell-based, Staphylococcus aureus; details: 52, 18 h
Procedure: as §2

MRSA 54 = type: cell-based, Staphylococcus aureus; details: 54, 18 h
Procedure: as §2

MRSA 936 = type: cell-based, Staphylococcus aureus; details: 936, 18 h
Procedure: as §2

MRSA 48 = type: cell-based, Staphylococcus aureus; details: 48, 18 h
Procedure: as §2

S. aureus ATCC 25923 [3] = type: cell-based, Staphylococcus aureus; details: ATCC 25923, 18 h
Procedure: as §2

MRSA 75 = type: cell-based, Staphylococcus aureus; details: 75, 18 h
Procedure: as §2

MRSA 113 = type: cell-based, Staphylococcus aureus; details: 113, 18 h
Procedure: as §2

S. aureus 725 = type: cell-based, Staphylococcus aureus; details: 725, 18 h
Procedure: as §2

MRSA ATCC 33591 [4] = type: cell-based, Staphylococcus aureus; details: ATCC 33591, 18 h
Procedure: as §2

MRSA 71 = type: cell-based, Staphylococcus aureus; details: 71, 18 h
Procedure: as §2

S. aureus 794 = type: cell-based, Staphylococcus aureus; details: 794, 18 h
Procedure: as §2

MRSA 51 = type: cell-based, Staphylococcus aureus; details: 51, 18 h
Procedure: as §2

SMILES	MBIC50, P.aeruginosa ATCC 27853 (P.aeruginosa ATCC 27853)	MBIC90, P.aeruginosa ATCC 27853 (P.aeruginosa ATCC 27853)	hemolysis rate at 128 µg/mL (mouse RBCs)	MBIC50, S. aureus ATCC 25923 (S. aureus ATCC 25923 [1])	MBIC90, S. aureus ATCC 25923 (S. aureus ATCC 25923 [1])	MBIC50, MRSA ATCC 33591 (MRSA ATCC 33591 [2])	MBIC90, MRSA ATCC 33591 (MRSA ATCC 33591 [2])	MIC, P. aeruginosa ATCC 27853 (P. aeruginosa ATCC 27853)	MIC, A. baumannii 9234 (A. baumannii 9234)	MIC, A. baumannii 822144 (A. baumannii 822144)	MIC, A. baumannii 91199 (A. baumannii 91199)	MIC, A. baumannii 9331 (A. baumannii 9331)	MIC, A. baumannii 9896 (A. baumannii 9896)	MIC, A. baumannii 51243 (A. baumannii 51243)	MIC, A. baumannii 5444 (A. baumannii 5444)	MIC, A. baumannii 91869 (A. baumannii 91869)	MIC, A. baumannii 91944 (A. baumannii 91944)	MIC, A. baumannii 9236 (A. baumannii 9236)	MIC, A. baumannii 92359 (A. baumannii 92359)	MIC, A. baumannii ATCC 19606 (A. baumannii ATCC 19606)	further results
C=CCCCC(C)(N)C(=O)N[C@@H](CC(C)C)C(=O)N[C@@H](CCCCN)C(=O)N[C@@H](CC(C)C)C(=O)N[C@@H](CC(C)C)C(=O)N[C@@H](CCCCN)C(=O)N[C@@H](CCCCN)C(=O)N[C@@H](CC(C)C)C(=O)N[C@@H](CC(C)C)C(N)=O (some centres unmarked) [Feleucin-K65] (H-[ξαMeGly(pent-4-enyl)]LKLLKKLL-NH2)	8 µg/mL	16 µg/mL	31.6%	8 µg/mL	16 µg/mL	8 µg/mL	8 µg/mL	8 µg/mL (≈ 7.23 µM)	4 µg/mL (≈ 3.61 µM)	8 µg/mL (≈ 7.23 µM)	4 µg/mL (≈ 3.61 µM)	8 µg/mL (≈ 7.23 µM)	4 µg/mL (≈ 3.61 µM)	4 µg/mL (≈ 3.61 µM)	4 µg/mL (≈ 3.61 µM)	4 µg/mL (≈ 3.61 µM)	4 µg/mL (≈ 3.61 µM)	4 µg/mL (≈ 3.61 µM)	4 µg/mL (≈ 3.61 µM)	4 µg/mL (≈ 3.61 µM)	hemolysis rate at 64 µg/mL (mouse RBCs; peptide 64 µg/mL): 9.08%; MIC, A. baumannii 9336 (A. baumannii 9336): 4 µg/mL (≈ 3.61 µM); MIC, MRSA 23 (MRSA 23): 4 µg/mL (≈ 3.61 µM); MIC, MRSA 74 (MRSA 74): 4 µg/mL (≈ 3.61 µM); MIC, MRSA 52 (MRSA 52): 4 µg/mL (≈ 3.61 µM); MIC, MRSA 54 (MRSA 54): 4 µg/mL (≈ 3.61 µM); MIC, MRSA 936 (MRSA 936): 4 µg/mL (≈ 3.61 µM); MIC, MRSA 48 (MRSA 48): 4 µg/mL (≈ 3.61 µM); MIC, S. aureus ATCC 25923 (S. aureus ATCC 25923 [3]): 8 µg/mL (≈ 7.23 µM); MIC, MRSA 75 (MRSA 75): 4 µg/mL (≈ 3.61 µM); MIC, MRSA 113 (MRSA 113): 8 µg/mL (≈ 7.23 µM); MIC, S. aureus 725 (S. aureus 725): 4 µg/mL (≈ 3.61 µM); MIC, MRSA ATCC 33591 (MRSA ATCC 33591 [4]): 4 µg/mL (≈ 3.61 µM); MIC, MRSA 71 (MRSA 71): 4 µg/mL (≈ 3.61 µM); MIC, S. aureus 794 (S. aureus 794): 8 µg/mL (≈ 7.23 µM); MIC, MRSA 51 (MRSA 51): 8 µg/mL (≈ 7.23 µM)
C=CCCCC(C)(NC(=O)[C@H](CC(C)C)NC(=O)[C@H](CCCCN)NC(=O)[C@H](CCCCN)NC(=O)[C@H](CC(C)C)NC(=O)[C@H](CC(C)C)NC(=O)[C@H](CCCCN)NC(=O)[C@H](CC(C)C)NC(=O)[C@@H](N)Cc1ccccc1)C(N)=O (some centres unmarked) [Feleucin-K70] (H-FLKLLKKL[ξαMeGly(pent-4-enyl)]-NH2)	8 µg/mL	16 µg/mL	less than 1%	4 µg/mL	8 µg/mL	4 µg/mL	8 µg/mL	8 µg/mL (≈ 7.01 µM)	8 µg/mL (≈ 7.01 µM)	8 µg/mL (≈ 7.01 µM)	8 µg/mL (≈ 7.01 µM)	16 µg/mL (≈ 14 µM)	4 µg/mL (≈ 3.51 µM)	8 µg/mL (≈ 7.01 µM)	8 µg/mL (≈ 7.01 µM)	8 µg/mL (≈ 7.01 µM)	8 µg/mL (≈ 7.01 µM)	8 µg/mL (≈ 7.01 µM)	8 µg/mL (≈ 7.01 µM)	8 µg/mL (≈ 7.01 µM)	MIC, A. baumannii 9336 (A. baumannii 9336): 8 µg/mL (≈ 7.01 µM); MIC, MRSA 23 (MRSA 23): 8 µg/mL (≈ 7.01 µM); MIC, MRSA 74 (MRSA 74): 8 µg/mL (≈ 7.01 µM); MIC, MRSA 52 (MRSA 52): 8 µg/mL (≈ 7.01 µM); MIC, MRSA 54 (MRSA 54): 8 µg/mL (≈ 7.01 µM); MIC, MRSA 936 (MRSA 936): 8 µg/mL (≈ 7.01 µM); MIC, MRSA 48 (MRSA 48): 8 µg/mL (≈ 7.01 µM); MIC, S. aureus ATCC 25923 (S. aureus ATCC 25923 [3]): 8 µg/mL (≈ 7.01 µM); MIC, MRSA 75 (MRSA 75): 8 µg/mL (≈ 7.01 µM); MIC, MRSA 113 (MRSA 113): 8 µg/mL (≈ 7.01 µM); MIC, S. aureus 725 (S. aureus 725): 8 µg/mL (≈ 7.01 µM); MIC, MRSA ATCC 33591 (MRSA ATCC 33591 [4]): 8 µg/mL (≈ 7.01 µM); MIC, MRSA 71 (MRSA 71): 8 µg/mL (≈ 7.01 µM); MIC, S. aureus 794 (S. aureus 794): 8 µg/mL (≈ 7.01 µM); MIC, MRSA 51 (MRSA 51): 8 µg/mL (≈ 7.01 µM)
